Earlier results, collected in patent US11993576B2, “N-benzyl-N-arylsulfonamide derivative and preparation and use thereof” (Hangzhou Yirui Pharmaceutical Technology Co., Ltd, priority 2019, dated 2024).

Legend:
[1] = system: rat model of autoimmune glomerular basal membrane nephritis; details: intraperitoneal injection; cited from earlier work
[2] = system: Th2 TEM cells with highly expressed Kv1.3; details: ovalbumin-induced asthma, rat; cited from earlier work
EAE = details: in vivo; cited from earlier work

Row | Compound | proteinuria and crescentic glomeruli [1] | proliferation of Th2 TEM cells and production of cytokines [2] | inductive occurrence of EAE (EAE) | production of IFN-γ and IL-17 (EAE)
1 | O=c1ccc2c(OCCCCc3ccccc3)c3ccoc3cc2o1 [Psora-4] | can significantly decrease proteinuria and crescentic glomeruli | – | – | –
2 | SHK-186 | – | can effectively inhibit proliferation of Th2 TEM cells with highly expressed Kv1.3 and production of cytokines | can resist inductive occurrence of EAE | inhibit production of IFN-γ and IL-17
